Consider one compound from patent US20040152750A1, “Novel glucagon antagonists” (priority 2002, published 2004).

Molecules are shown by their SMILES.

The melting point is the temperature of the solid-liquid transition. For the compound `O=C(O)CCNC(=O)c1ccc(N(Cc2ccc(C3=CCCCC3)cc2)C(=O)/C=C/c2cccc(OC(F)(F)F)c2)cc1` [Example 211, 3-(4-{(4-Cyclohex-1-enylbenzyl)-[3-(3-trifluoromethoxyphenyl)acryloyl]amino}benzoylamino) -propionic acid], the melting point was in the range of 178 to 180 °C.
